Measurements: patent publication US7452908B2, “Amide derivatives” (Banyu Pharmaceutical Co., Ltd., priority 1999, dated 2008)

Legend:
[1] = molecular target: T1, human m1 muscarinic acetylcholine receptor expressed in CHO cells (Homo sapiens, UniProt P11229); test: Inhibition of [3H]-N-methylscopolamine binding to muscarinic m1 receptor; settings: 0.2 nM [3H]-N-methylscopolamine
T1 construct: purchased Receptor Biology, Inc; host or cells: CHO cells
T1 sequence (P11229 1-460): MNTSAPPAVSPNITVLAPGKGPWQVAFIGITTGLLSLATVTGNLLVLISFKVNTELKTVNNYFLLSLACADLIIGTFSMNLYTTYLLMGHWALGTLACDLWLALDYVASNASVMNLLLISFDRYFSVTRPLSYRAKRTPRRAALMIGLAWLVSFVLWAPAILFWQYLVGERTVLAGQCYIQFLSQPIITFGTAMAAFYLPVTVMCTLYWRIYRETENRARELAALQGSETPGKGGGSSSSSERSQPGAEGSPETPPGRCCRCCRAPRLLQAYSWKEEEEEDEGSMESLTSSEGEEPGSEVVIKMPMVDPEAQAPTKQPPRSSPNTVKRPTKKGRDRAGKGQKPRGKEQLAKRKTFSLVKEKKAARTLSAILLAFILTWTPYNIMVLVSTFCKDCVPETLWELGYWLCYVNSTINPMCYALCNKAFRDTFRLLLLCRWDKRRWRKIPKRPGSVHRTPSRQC
Procedure: (§1) These tests were performed according to a modification of the method of Hargreaves, et al. (Br. J. Pharmacol. 107: 494-501, 1992). Namely, muscarinic acetylcholine receptors of human m1, m2, m3, m4 and m5 expressed in CHO cells (Receptor Biology, Inc.) were incubated with 0.2 nM [^3H]-N-methylscopolamine (82Ci/mmol, New England Nuclear, Inc.) and a test compound to be tested in 0.5 ml of 50 mM Tris-HCl, 10 mM MgCl2, 1 mM EDTA solution (pH 7.4) for 120 minutes at room temperature (about 20-25° C.), followed by suction filtration over a glass filter (UniFilter plate-GF/C; Packard). Then the filter was washed four times with 1 ml of ice-cold Tris-HCl buffer and dried at 50° C. for an hour. After adding a scintillator (Microscinti 0; Packard), the radioactivity of [^3H]-N-methylscopolamine binding to the filter was counted with a microplate scintillation counter (TopCount™; Packard). Non-specific receptor binding of [^3H]-N-methylscopolamine was measured by adding 1 μM N-methylscopolamine.

[2] = molecular target: T2, human m2 muscarinic acetylcholine receptor expressed in CHO cells (Homo sapiens, UniProt P08172); test: Inhibition of [3H]-N-methylscopolamine binding to muscarinic m2 receptor; settings: 0.2 nM [3H]-N-methylscopolamine
T2 construct: purchased Receptor Biology, Inc; host or cells: CHO cells
T2 sequence (P08172 1-466): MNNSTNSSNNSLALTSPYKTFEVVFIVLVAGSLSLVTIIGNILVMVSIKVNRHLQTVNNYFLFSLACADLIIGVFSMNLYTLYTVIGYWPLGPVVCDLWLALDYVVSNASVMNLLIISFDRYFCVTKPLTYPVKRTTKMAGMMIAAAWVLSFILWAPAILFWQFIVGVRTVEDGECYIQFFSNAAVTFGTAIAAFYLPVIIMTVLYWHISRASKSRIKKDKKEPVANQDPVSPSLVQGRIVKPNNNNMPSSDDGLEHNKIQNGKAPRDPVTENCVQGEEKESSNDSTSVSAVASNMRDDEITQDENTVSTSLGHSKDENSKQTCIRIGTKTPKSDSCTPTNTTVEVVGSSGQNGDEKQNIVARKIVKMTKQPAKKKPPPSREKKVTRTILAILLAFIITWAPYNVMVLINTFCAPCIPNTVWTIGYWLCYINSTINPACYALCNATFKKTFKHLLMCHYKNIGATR
Procedure: as §1

[3] = molecular target: T3, human m3 muscarinic acetylcholine receptor expressed in CHO cells (Homo sapiens, UniProt P20309); test: Inhibition of [3H]-N-methylscopolamine binding to muscarinic m3 receptor; settings: for Ki: human m3 in CHO cells, 0.2 nM [3H]-N-methylscopolamine; for Selectivity m1/m3: ratio of Ki m1 to Ki m3; for Selectivity m2/m3: ratio of Ki m2 to Ki m3; for Selectivity m4/m3: ratio of Ki m4 to Ki m3; for Selectivity m5/m3: ratio of Ki m5 to Ki m3
T3 construct: purchased Receptor Biology, Inc; host or cells: CHO cells
Procedure: as §1

[4] = molecular target: T4, human m4 muscarinic acetylcholine receptor expressed in CHO cells (Homo sapiens, UniProt P08173); test: Inhibition of [3H]-N-methylscopolamine binding to muscarinic m4 receptor; settings: 0.2 nM [3H]-N-methylscopolamine
T4 construct: purchased Receptor Biology, Inc; host or cells: CHO cells
T4 sequence (P08173 1-479): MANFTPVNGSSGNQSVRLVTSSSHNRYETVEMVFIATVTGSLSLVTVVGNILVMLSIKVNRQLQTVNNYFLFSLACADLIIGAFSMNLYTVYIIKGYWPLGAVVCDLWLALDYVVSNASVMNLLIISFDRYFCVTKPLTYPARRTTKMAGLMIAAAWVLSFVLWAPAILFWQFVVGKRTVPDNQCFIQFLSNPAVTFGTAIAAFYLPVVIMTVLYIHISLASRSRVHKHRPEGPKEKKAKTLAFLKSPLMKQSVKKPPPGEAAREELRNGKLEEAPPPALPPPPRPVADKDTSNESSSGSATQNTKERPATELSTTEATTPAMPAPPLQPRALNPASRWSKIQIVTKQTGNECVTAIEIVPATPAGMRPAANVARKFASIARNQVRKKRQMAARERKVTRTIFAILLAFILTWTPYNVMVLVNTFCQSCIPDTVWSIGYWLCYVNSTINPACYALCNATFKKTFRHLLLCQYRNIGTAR
Procedure: as §1

[5] = molecular target: T5, human m5 muscarinic acetylcholine receptor expressed in CHO cells (Homo sapiens, UniProt P08912); test: Inhibition of [3H]-N-methylscopolamine binding to muscarinic m5 receptor; settings: 0.2 nM [3H]-N-methylscopolamine
T5 construct: purchased Receptor Biology, Inc; host or cells: CHO cells
T5 sequence (P08912 1-532): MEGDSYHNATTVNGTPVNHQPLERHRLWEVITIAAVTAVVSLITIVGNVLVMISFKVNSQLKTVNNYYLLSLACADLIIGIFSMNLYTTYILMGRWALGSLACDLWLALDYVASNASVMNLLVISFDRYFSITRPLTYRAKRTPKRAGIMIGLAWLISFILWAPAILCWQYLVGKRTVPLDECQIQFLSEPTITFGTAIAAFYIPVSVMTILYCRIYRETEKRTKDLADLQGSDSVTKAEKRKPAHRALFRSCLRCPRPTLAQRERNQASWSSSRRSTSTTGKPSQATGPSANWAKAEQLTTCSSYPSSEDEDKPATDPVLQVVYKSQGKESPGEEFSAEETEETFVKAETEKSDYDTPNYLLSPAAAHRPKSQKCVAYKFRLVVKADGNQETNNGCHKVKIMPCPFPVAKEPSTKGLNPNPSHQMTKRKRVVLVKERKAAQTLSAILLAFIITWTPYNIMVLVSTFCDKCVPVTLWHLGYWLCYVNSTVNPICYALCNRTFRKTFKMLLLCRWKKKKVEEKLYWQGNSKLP
Procedure: as §1

[6] = molecular target: T6, M3 receptor (Canis lupus familiaris, UniProt A0A8I3N190); test: Antagonism to M3 receptor: bronchodilation in anesthetized dogs (methacholine provocation test); format: in vivo, beagle dogs; settings: inhalation of 1 mg/ml for 10 minutes, methacholine threshold four hours after administration
T6 construct: from tissue; host or cells: whole animal, male beagle dogs (in vivo, airway)
Procedure: The bronchodilation action of inhaled test compound was evaluated by measuring the compounds' inhibitory action on respiratory resistance-increasing reaction induced by a methacholine provocation test. For the experiment, 12 to 36 months old male beagle dogs (weighing 10-15 kg) were used. After being anesthetized by intravenous pentobarbital administration (30 mg/kg), the dogs were intubated cannulae in their trachea. After their respiration became stable, the cannulae were connected with Astograph (TCK-6100H, Chest) and a methacholine provocation test by 3 Hz oscillation method was conducted. […] The methacholine concentration at which the respiratory resistance increased to twice the initial value was recorded as the methacholine reaction threshold value. Before evaluating the test compounds, the methacholine reaction threshold value^1) under no drug treatment was measured at least twice at a week's interval, to select the dogs showing reproducible reaction.
The inhaling administration of each test compound (1 mg/ml) was conducted for 10 minutes under pentobarbital anesthetization (30 mg/kg, i.v.), with the nebulizer in the Astograph. […] The bronchodilator activity (shift value) of each tested compound was determined according to the following equation: […]

T3 sequence (P20309 whole entry): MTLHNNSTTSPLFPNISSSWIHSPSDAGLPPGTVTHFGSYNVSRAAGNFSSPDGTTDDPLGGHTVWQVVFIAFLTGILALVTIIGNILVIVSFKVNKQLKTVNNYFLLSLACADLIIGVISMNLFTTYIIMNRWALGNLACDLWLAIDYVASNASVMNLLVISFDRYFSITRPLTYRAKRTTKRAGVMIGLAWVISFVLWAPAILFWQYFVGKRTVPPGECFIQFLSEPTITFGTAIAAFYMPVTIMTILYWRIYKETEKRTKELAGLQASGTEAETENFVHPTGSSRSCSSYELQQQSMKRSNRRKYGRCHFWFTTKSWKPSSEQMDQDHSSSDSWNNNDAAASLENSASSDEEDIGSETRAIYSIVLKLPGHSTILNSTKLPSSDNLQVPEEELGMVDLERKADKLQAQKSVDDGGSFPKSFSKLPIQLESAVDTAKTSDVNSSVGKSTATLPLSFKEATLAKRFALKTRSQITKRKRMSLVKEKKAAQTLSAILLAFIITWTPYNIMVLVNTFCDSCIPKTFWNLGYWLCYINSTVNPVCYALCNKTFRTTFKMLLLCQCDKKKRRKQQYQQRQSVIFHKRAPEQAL
T6 sequence (A0A8I3N190 1-590): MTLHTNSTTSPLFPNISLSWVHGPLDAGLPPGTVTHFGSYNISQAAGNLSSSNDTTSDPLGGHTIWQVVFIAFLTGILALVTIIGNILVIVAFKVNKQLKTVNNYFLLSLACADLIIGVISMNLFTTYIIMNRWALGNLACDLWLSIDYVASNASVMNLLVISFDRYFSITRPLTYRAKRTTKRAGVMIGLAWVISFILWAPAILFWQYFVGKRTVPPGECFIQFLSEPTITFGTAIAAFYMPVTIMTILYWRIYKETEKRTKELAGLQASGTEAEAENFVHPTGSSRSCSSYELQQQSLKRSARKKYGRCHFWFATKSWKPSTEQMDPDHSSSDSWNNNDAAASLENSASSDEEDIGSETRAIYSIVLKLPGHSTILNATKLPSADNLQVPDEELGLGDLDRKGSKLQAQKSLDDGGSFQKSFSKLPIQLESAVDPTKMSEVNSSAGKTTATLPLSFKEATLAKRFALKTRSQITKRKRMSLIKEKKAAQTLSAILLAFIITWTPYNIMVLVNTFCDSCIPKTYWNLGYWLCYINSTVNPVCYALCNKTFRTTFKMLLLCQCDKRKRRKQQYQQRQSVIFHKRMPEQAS

| Compound | Ki [1] [nM] | Ki [2] [nM] | Ki [3] [nM] | Selectivity m1/m3 [3] [times] | Selectivity m2/m3 [3] [times] | Selectivity m4/m3 [3] [times] | Selectivity m5/m3 [3] [times] | Ki [4] [nM] | Ki [5] [nM] | Shift (fold) Airway constriction M3 [6] [fold] |
| --- | --- | --- | --- | --- | --- | --- | --- | --- | --- | --- |
| CCCCCN1CCC[C@H](CNC(=O)CCNC(=O)CNC(=O)CC(c2ccccc2)(c2ccccc2)c2ccccc2)C1 [Example 6, N-{2-(3-{((3R)-1-pentyl-3-piperidyl)methyl}amino-3-oxopropyl)amino-2-oxoethyl}-3,3,3-triphenylpropanamide] | 860 | 250 | 1.8 | 480 | 140 | 37 | 46 | 66 | 82 |  |
| O=C(CCNC(=O)[C@H](Cc1c[nH]cn1)NC(=O)CC(c1ccccc1)(c1ccccc1)c1ccccc1)NC[C@H]1CCCN(CC2CCCCC2)C1 [Example 19, N-{(1S)-2-(3-{((3R)-1-cyclohexylmethyl-3-piperidyl)methyl}-amino-3-oxopropyl)amino-1-(1H-imidazol-4-ylmethyl)-2-oxoethyl}-3,3,3-triphenylpropanamide] | 270 | 30 | 0.75 | 360 | 40 | 11 | 25 | 8.1 | 19 |  |
| O=C(CCCCCNC(=O)CC(c1ccccc1)(c1ccccc1)c1ccccc1)NC[C@H]1CCCN(CC2CCCCC2)C1 [Example 28, N-(6-{((3R)-1-cyclohexylmethyl-3-piperidyl)methyl}amino-6-oxohexyl)-3,3,3-triphenylpropanamide] | 130 | 85 | 1.2 | 110 | 71 | 30 | 180 | 36 | 220 |  |
| CC[N+]1(CC)CCC[C@H](CNC(=O)[C@H]2CCCN2C(=O)[C@@H]2C[C@@H](O)CN2C(=O)CC(c2ccc(Cl)cc2)(c2ccc(Cl)cc2)c2ccc(Cl)cc2)C1.[Cl-] [Example 144, (3R)-1,1-diethyl-3-({({(2R)-1-({(2S,4R)-4-hydroxy-1-{3,3,3-tris-(4-chlorophenyl)propanoyl}-2-pyrrolidinyl}carbonyl)-2-pyrrolidinyl}-carbonyl)amino}methyl)piperidinium chloride] | 110 | 110 | 1.3 | 85 | 85 | 21 | 180 | 27 | 230 |  |
| CCCCCCC[N+]1(C)CCC[C@H](CNC(=O)CCNC(=O)CNC(=O)CC(c2ccccc2)(c2ccccc2)c2ccccc2)C1.[Br-] (stereo partly drawn) [Example 146, (3R)-1-heptyl-1-methyl-3-({(3-{(2-{(3,3,3-triphenylpropanoyl)amino}acetyl)amino}propanoyl)amino}methyl)piperidinium bromide] | 1200 | 1000 | 15 | 80 | 67 | 24 | 33 | 360 | 490 |  |
| CC[C@H](C)C[N+]1(CC)CCC[C@@H](CNC(=O)CCCCCNC(=O)CC(c2ccccc2)(c2ccccc2)c2ccccc2)C1.[Cl-] (stereo partly drawn) [Example 150, (3S)-1-ethyl-1-{(2S)-2-methylbutyl}-3-({(6-{(3,3,3-triphenylpropanoyl)amino}hexanoyl)amino}methyl)piperidinium chloride] | 150 | 490 | 4.7 | 32 | 100 | 66 | 180 | 310 | 850 |  |
| O=C(NC[C@H]1CCC[N+]2(CCCC2)C1)[C@H]1CCCN1C(=O)[C@@H]1C[C@@H](O)CN1C(=O)CC(c1ccccc1)(c1ccccc1)c1ccccc1.[Cl-] [Example 151, (7R)-7-({({(2R)-1-({(2S,4R)-4-hydroxy-1-(3,3,3-triphenylpropanoyl)-2-pyrrolidinyl}carbonyl)-2-pyrrolidinyl}carbonyl)amino}methyl)-5-azoniaspiro [4.5]decane chloride] | 450 | 460 | 3.5 | 130 | 130 | 21 | 250 | 74 | 890 | >40.0 |
